Reference: ChEMBL document CHEMBL2331553, “Discovery of N-[[1-[2-(tert-butylcarbamoylamino)ethyl]-4-(hydroxymethyl)-4-piperidyl]methyl]-3,5-dichloro-benzamide as a selective T-type calcium channel (Cav3.2) inhibitor” (Bioorg Med Chem Lett, 2013)
≈ marks a conversion by molar mass, not a printed value.

How the values were obtained:
[1] = target: T1, Voltage-dependent T-type calcium channel subunit alpha-1H (Homo sapiens, UniProt O95180); assay: Inhibition of human T-type calcium channel Cav3.2 expressed in T-Rex293 cells by whole cell patch clamp assay; format: cell-based, HEK293
T1 sequence (O95180 whole entry): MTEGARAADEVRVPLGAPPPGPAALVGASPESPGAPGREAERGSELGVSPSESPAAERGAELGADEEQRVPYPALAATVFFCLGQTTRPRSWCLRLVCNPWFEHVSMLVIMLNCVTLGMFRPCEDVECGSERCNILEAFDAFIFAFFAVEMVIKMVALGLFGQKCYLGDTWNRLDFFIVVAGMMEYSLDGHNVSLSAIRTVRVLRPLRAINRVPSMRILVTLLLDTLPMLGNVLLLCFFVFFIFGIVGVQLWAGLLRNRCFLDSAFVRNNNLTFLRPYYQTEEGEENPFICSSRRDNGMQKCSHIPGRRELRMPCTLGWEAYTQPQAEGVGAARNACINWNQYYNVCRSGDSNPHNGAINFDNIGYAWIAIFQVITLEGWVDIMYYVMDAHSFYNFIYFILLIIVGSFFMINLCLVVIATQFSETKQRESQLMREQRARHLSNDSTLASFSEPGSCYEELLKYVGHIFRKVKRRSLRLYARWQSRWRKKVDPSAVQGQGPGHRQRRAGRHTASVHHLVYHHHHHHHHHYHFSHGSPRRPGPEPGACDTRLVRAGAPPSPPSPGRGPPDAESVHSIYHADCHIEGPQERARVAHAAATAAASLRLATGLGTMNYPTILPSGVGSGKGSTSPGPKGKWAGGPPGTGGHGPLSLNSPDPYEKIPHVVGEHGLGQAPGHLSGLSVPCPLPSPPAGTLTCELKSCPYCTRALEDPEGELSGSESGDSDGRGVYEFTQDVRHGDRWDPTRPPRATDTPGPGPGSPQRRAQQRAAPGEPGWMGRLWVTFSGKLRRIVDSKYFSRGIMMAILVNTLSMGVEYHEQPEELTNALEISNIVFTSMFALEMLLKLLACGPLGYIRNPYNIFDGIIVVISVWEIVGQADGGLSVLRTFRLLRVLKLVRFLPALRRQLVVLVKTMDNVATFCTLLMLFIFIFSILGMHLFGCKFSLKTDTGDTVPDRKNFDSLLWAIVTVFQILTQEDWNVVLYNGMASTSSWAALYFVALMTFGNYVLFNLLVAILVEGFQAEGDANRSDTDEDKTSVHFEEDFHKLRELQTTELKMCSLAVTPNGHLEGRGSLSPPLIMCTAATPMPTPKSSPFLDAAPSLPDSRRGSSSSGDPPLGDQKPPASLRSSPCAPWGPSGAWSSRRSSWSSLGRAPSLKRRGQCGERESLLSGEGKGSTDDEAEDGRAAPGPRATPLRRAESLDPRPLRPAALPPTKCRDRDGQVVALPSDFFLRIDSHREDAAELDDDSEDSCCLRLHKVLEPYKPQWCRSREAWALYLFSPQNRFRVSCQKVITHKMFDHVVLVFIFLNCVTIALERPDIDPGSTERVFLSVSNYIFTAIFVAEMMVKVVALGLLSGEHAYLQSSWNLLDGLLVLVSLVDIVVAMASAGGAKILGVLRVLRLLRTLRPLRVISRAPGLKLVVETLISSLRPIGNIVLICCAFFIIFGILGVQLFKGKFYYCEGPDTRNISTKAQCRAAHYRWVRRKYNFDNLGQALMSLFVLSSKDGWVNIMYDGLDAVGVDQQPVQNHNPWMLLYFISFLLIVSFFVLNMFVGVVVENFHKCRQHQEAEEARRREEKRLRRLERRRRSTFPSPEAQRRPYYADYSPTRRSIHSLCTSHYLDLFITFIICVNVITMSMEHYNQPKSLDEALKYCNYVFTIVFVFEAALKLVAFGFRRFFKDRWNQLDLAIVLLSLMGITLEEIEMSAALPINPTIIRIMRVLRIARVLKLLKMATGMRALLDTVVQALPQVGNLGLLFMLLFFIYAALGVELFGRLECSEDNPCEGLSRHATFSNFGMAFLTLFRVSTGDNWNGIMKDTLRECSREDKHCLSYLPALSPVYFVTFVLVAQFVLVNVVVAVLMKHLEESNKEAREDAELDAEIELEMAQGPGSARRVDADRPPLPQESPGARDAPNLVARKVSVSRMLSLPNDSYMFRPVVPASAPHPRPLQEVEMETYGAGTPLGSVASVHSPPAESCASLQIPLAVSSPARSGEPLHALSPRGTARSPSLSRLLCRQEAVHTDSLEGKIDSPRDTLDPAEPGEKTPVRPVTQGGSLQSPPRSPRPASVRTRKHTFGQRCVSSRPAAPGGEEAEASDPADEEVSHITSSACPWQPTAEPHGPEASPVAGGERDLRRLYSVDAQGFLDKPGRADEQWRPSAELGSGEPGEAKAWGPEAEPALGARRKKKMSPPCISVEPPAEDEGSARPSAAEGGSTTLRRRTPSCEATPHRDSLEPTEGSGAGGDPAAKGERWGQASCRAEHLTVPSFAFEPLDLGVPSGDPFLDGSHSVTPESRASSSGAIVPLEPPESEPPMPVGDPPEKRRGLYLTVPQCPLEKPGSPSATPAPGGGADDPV

Cytochrome P450 2D6 = Cytochrome P450 2D6 (Homo sapiens, UniProt P10635); assay: Inhibition of human recombinant CYP2D6-mediated 7-methoxy-4(aminomethyl)-coumarine degradation; format: ADME
Chain of Cytochrome P450 2D6 (P10635 whole entry): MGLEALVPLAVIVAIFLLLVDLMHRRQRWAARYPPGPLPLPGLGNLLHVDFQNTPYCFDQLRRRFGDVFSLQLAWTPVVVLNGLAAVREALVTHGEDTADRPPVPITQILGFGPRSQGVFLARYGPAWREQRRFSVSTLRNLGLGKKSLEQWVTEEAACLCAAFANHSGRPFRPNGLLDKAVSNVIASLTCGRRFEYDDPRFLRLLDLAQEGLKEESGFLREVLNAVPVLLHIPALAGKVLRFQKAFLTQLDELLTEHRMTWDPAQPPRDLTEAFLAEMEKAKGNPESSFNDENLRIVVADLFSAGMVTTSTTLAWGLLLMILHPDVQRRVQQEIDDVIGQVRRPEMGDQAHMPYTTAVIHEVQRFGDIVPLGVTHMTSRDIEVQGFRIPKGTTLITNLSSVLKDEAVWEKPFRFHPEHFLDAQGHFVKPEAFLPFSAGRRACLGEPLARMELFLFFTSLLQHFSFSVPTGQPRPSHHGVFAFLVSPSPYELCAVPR

[2] = target: Voltage-gated inwardly rectifying potassium channel KCNH2 (Homo sapiens, UniProt Q12809); assay: Inhibition of human ERG expressed in CHO cells by IONWORKS assay; format: cell-based
Chain of Voltage-gated inwardly rectifying potassium channel KCNH2 (Q12809 whole entry): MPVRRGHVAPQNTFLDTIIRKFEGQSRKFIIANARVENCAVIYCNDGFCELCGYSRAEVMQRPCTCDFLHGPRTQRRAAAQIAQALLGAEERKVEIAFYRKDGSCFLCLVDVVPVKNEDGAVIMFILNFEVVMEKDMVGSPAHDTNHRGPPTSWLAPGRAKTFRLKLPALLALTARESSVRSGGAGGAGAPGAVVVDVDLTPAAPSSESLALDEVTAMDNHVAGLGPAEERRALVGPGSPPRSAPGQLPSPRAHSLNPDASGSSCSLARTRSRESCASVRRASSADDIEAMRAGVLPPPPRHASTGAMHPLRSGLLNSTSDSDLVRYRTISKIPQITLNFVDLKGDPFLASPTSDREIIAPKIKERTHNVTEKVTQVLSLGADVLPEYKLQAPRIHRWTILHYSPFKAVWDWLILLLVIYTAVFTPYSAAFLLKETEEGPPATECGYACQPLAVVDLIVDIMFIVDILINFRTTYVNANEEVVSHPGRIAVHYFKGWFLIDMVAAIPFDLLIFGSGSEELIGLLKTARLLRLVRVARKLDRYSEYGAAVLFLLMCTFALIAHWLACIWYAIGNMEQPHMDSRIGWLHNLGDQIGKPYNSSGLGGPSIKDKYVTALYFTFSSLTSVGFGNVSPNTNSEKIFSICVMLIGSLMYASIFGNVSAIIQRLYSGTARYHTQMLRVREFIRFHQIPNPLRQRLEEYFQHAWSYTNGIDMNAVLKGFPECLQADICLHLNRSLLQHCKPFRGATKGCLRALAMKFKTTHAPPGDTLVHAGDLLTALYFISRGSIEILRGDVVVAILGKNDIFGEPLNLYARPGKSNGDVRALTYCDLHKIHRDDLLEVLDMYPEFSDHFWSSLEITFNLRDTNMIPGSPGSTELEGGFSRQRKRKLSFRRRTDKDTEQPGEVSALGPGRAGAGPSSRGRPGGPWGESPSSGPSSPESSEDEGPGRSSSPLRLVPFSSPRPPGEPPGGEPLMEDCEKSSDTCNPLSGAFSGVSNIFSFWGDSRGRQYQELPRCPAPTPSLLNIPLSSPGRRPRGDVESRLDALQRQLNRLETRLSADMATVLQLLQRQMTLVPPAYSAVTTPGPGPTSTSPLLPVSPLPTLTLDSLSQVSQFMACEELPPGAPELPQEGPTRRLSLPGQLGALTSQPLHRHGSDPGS

Liver microsomes = assay: Drug metabolism in human liver microsomes assessed as glutathione-adduct reactive metabolite formation at 1 mg/ml after 30 mins; format: ADME, Microsome; conditions: 0.5 h
[3] = Intrinsic clearance in human liver microsomes at 1 mg/ml after 45 mins; format: ADME, Microsome; conditions: read-out: CLH
[4] = Ratio of unbound concentration in brain to unbound concentration in plasma in Sprague-Dawley rat at 2 umol/kg/hr, iv administered as infusion measured after 4 hrs; format: ADME, organism-based; conditions: brain and plasma (unbound concentrations), read-out: K(p,uu,brain)
[5] = target: Sodium channel protein type 5 subunit alpha (Homo sapiens, UniProt Q14524); assay: Inhibition of human Nav1.5 channel expressed in CHO cells by IONWORKS patch clamp assay; format: cell-based
[6] = target: Voltage-dependent L-type calcium channel subunit alpha-1C (Homo sapiens, UniProt Q13936); assay: Inhibition of calcium channel Cav1.2 (unknown origin) expressed in CHO cells by IONWORKS patch clamp assay; format: cell-based
[7] = target: Voltage-gated potassium channel, IKs; KCNQ1(Kv7.1)/KCNE1(MinK) (Homo sapiens, UniProt P15382+P51787); assay: Inhibition of human IKs channel expressed in CHO cells by IONWORKS patch clamp assay; format: cell-based
Chain of Voltage-gated potassium channel, IKs; KCNQ1(Kv7.1)/KCNE1(MinK) (P51787 whole entry): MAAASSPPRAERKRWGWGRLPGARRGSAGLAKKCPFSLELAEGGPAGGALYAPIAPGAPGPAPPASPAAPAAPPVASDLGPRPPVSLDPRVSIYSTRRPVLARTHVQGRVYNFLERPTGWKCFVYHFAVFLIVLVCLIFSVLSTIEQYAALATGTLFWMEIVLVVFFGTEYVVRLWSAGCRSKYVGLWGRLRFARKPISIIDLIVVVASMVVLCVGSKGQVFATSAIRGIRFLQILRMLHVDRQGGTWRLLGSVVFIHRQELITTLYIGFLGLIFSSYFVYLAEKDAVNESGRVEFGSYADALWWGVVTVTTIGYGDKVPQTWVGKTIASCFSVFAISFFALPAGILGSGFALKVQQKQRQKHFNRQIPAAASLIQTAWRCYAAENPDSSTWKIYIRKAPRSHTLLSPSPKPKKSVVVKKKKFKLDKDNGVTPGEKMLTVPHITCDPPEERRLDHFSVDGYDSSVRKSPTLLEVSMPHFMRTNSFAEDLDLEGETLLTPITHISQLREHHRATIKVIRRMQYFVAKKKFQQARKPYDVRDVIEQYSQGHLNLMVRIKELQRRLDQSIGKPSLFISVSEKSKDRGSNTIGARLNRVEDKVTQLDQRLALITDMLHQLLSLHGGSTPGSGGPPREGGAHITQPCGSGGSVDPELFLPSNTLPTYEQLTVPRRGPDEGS

[8] = target: T2, A-type voltage-gated potassium channel KCND3 (Homo sapiens, UniProt Q9UK17); assay: Inhibition of human Kv4.3 channel expressed in CHO cells by IONWORKS patch clamp assay; format: cell-based
T2 sequence (Q9UK17 whole entry): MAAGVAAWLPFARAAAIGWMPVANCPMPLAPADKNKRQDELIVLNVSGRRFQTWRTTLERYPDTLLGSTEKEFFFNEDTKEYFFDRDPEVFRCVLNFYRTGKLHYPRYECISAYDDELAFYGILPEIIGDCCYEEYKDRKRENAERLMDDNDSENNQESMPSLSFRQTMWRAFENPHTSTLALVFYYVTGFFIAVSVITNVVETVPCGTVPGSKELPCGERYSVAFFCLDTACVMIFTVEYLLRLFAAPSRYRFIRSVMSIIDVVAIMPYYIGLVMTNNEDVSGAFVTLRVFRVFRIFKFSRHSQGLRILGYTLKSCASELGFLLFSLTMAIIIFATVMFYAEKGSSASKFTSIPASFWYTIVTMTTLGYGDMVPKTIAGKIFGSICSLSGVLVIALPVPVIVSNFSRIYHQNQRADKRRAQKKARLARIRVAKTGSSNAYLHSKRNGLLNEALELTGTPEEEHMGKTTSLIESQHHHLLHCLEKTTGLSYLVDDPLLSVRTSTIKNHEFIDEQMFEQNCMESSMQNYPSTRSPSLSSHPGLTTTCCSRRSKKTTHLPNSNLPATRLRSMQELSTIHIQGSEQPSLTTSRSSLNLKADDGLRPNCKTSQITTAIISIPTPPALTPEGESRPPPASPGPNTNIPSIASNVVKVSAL

[9] = target: T1, Voltage-dependent T-type calcium channel subunit alpha-1H; assay: Inhibition of T-type calcium channel Cav3.2 (unknown origin) by IONWORKS assay
Canis familiaris = assay: Cardioprotective activity in iv dosed beagle dog atrial fibrillation model assessed as reduction in heart rate administered as infusion for over 20 mins followed by 60-mins washout period by ECG analysis relative to control; format: functional, organism-based; conditions: Canis lupus familiaris
[10] = Oral bioavailability in beagle dog at 3 mg/kg; format: ADME, organism-based, Canis lupus familiaris; conditions: in vivo
[11] = Solubility of the compound at pH 7.4; format: physicochemical; conditions: buffer
[12] = target: T3, Potassium/sodium hyperpolarization-activated cyclic nucleotide-gated channel 4 (Homo sapiens, UniProt Q9Y3Q4); assay: Inhibition of human HCN4 channel expressed in CHO cells by IONWORKS patch clamp assay; format: cell-based
T3 sequence (Q9Y3Q4 whole entry): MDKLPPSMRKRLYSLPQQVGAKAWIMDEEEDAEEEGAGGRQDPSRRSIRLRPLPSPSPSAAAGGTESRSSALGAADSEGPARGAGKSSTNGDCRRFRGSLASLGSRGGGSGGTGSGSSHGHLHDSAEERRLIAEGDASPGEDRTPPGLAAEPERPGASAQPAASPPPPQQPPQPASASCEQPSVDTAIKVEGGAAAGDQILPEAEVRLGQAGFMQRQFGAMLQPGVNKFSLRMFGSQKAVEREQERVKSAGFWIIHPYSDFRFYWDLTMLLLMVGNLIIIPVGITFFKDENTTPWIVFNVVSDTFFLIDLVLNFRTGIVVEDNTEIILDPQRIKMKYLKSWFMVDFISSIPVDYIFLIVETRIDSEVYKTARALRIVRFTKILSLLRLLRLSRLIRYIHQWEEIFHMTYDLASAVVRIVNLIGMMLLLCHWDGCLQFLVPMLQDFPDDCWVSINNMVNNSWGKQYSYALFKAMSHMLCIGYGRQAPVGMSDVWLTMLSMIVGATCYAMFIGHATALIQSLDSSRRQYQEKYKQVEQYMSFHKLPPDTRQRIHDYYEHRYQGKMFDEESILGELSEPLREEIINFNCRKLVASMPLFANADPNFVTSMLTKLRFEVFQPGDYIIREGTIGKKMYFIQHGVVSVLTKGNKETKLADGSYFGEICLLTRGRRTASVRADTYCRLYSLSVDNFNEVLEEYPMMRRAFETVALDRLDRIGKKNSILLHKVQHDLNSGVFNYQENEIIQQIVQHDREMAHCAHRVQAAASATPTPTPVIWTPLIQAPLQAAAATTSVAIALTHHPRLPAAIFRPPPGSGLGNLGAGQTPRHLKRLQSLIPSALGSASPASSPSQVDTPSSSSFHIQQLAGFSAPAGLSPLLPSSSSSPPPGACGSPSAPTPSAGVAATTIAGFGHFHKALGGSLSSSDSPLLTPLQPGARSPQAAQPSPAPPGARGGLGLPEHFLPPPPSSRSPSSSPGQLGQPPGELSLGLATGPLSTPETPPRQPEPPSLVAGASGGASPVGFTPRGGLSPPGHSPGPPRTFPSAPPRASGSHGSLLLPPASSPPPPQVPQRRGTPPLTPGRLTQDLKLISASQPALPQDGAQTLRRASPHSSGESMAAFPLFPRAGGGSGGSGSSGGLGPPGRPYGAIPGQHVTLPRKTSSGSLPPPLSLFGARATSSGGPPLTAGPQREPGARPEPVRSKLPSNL

[13] = Clearance in beagle dog at 1 mg/kg, iv; format: ADME, organism-based, Canis lupus familiaris; set-up: dose 1 mg/kg, route intravenous; conditions: in vivo

| Compound | IC50 [1] | IC50 (Cytochrome P450 2D6) | Drug metabolism (Liver microsomes) | microsomal CLint [3] | IC50 [2] | further results |
| --- | --- | --- | --- | --- | --- | --- |
| CC(C)(C)C(=O)NCCN1CCN(CC(=O)NC23CC4CC(CC(C4)C2)C3)CC1 | 3000 nM |  |  |  |  |  |
| CC(C)(C)NC(=O)NCCCN1CCN(CC(=O)NC23CC4CC(CC(C4)C2)C3)CC1 | 1200 nM |  |  |  |  |  |
| CC(C)(C)NC(=O)NCCN1CCC(NC(=O)c2cc(Cl)cc(Cl)c2)C1 (configuration not stated) | 800 nM | 2600 nM | Active | 15 µL/min/mg | 6600 nM |  |
| CC(C)(C)C(=O)NCCCN1CCN(CC(=O)NC23CC4CC(CC(C4)C2)C3)CC1 | 1300 nM |  |  |  |  |  |
| COCC(=O)O[C@]1(CCN(C)CCCc2nc3ccccc3[nH]2)CCc2cc(F)ccc2[C@@H]1C(C)C [MIBEFRADIL] |  | 63 nM | Active | 56.5 µL/min/mg |  |  |
| O=C(CN1CCN(CCC2CCOCC2)CC1)NC12CC3CC(CC(C3)C1)C2 |  |  |  |  |  | Kp uu at 4 h [4]: 1.2 |
| CC(C)(C)NC(=O)NCCN1CC(NC(=O)c2cc(Cl)cc(Cl)c2)C1 | 800 nM | 4500 nM | Active | 4 µL/min/mg |  |  |
| CC(C)(C)OC(=O)NCCN1CCN(CC(=O)NC23CC4CC(CC(C4)C2)C3)CC1 | 1200 nM |  |  |  |  |  |
| CC(C)(C)NC(=O)NCCN1CCOC(CNC(=O)c2cc(Cl)cc(Cl)c2)C1 (configuration not stated) | 3300 nM | > 20000 nM | Active | 47 µL/min/mg | > 33000 nM |  |
| CC(C)(C)CS(=O)(=O)NCCN1CCN(CC(=O)NC23CC4CC(CC(C4)C2)C3)CC1 | 900 nM |  |  |  |  | Kp uu at 4 h [4]: 0.3 |
| CC(C)(C)NC(=O)CN1CCN(CC(=O)NC23CC4CC(CC(C4)C2)C3)CC1 | 1000 nM |  |  |  |  | Kp uu at 4 h [4]: 0.4 |
| CC(C)(C)S(=O)(=O)CCCN1CCN(CC(=O)NC23CC4CC(CC(C4)C2)C3)CC1 | 2400 nM |  |  |  |  | Kp uu at 4 h [4]: 0.3 |
| CC(C)(C)NCCN1CCN(CC(=O)NC23CC4CC(CC(C4)C2)C3)CC1 | 4900 nM |  |  |  |  |  |

More lines, main results first:

| IC50 [1] | IC50 (Cytochrome P450 2D6) | Drug metabolism (Liver microsomes) | microsomal CLint [3] | Compound | IC50 [2] | further results |
| --- | --- | --- | --- | --- | --- | --- |
| 400 nM | 1000 nM | Active | < 5 µL/min/mg | CC(C)(C)NC(=O)NCCN1CCC(CNC(=O)c2cc(Cl)cc(Cl)c2)C1 (configuration not stated) | 5800 nM |  |
| 500 nM | 8300 nM | Active | 48 µL/min/mg | CC(C)(C)NC(=O)NCCN1CCCC(NC(=O)c2cc(Cl)cc(Cl)c2)C1 (configuration not stated) | 4100 nM |  |
| 600 nM | 14000 nM | Active | 6 µL/min/mg | CC(C)(C)NC(=O)NCCN1CCC(O)(CNC(=O)c2cc(Cl)cc(Cl)c2)CC1 | > 33000 nM |  |
| 600 nM | 13000 nM | Not Active | 7 µL/min/mg | CC(C)(C)NC(=O)NCCN1CCC(CO)(CNC(=O)c2cc(Cl)cc(Cl)c2)CC1 | > 33000 nM | IC50 [5]: > 33000 nM; IC50 [6]: > 31600 nM; IC50 [7]: > 33000 nM; IC50 [8]: > 33000 nM; IC50 [9]: 1200 nM; Activity (Canis familiaris): Dose-dependent effect; bioavailability [10]: 22%; solubility [11]: 460 µM (≈ 211 µg/mL); IC50 [12]: > 33000 nM; clearance [13]: 17 mL/min/kg |
| 500 nM | 1600 nM | Not Active | 16 µL/min/mg | CC(C)(C)NC(=O)NCCN1CCCC(CNC(=O)c2cc(Cl)cc(Cl)c2)C1 (configuration not stated) |  |  |
| 500 nM | > 20000 nM |  | 100 µL/min/mg | CC(C)(C)NC(=O)NCCN1CCN(CC(=O)NC23CC4CC(CC(C4)C2)C3)CC1 | > 33000 nM | Kp uu at 4 h [4]: 0.02 |
| 300 nM | 8000 nM |  | 29 µL/min/mg | CC(C)(C)NC(=O)NCCN1CCN(CC(=O)Nc2cc(Cl)cc(Cl)c2)CC1 | 1600 nM |  |
| 500 nM | 3400 nM | Not Active | < 5 µL/min/mg | CC(C)(C)NC(=O)NCCN1CCC(CNC(=O)c2cc(Cl)cc(Cl)c2)CC1 | 13000 nM |  |
